Laboratory results reported in the NIST ThermoML archive (doi:10.1021/je900405j).
± gives the expanded uncertainty stated by the source.

Details: for viscosity: 101.33 kPa, Cone and plate viscometry; for viscosity / surface tension liquid-gas: Liquid; for surface tension liquid-gas: 293 K; for Normal melting temperature: Crystal; for Normal melting temperature / Glass transition temperature: DTA

viscosity (290 K)	surface tension liquid-gas	viscosity (295 K)	viscosity (300 K)	viscosity (305 K)	viscosity (310 K)	viscosity (315 K)	viscosity (320 K)	viscosity (325 K)	viscosity (330 K)	viscosity (335 K)	viscosity (340 K)	viscosity (345 K)	viscosity (350 K)	viscosity (355 K)	viscosity (360 K)	viscosity (365 K)	Normal melting temperature	Glass transition temperature	Structure (SMILES)
355 ± 17 mPa·s	38 ± 5 mN/m	272 ± 14 mPa·s	209 ± 12 mPa·s	163 ± 11 mPa·s	129 ± 10 mPa·s	105 ± 10 mPa·s	87 ± 10 mPa·s	72 ± 10 mPa·s	62 ± 10 mPa·s	53 ± 10 mPa·s	47 ± 10 mPa·s	41 ± 10 mPa·s	37 ± 10 mPa·s	34 ± 10 mPa·s	30 ± 10 mPa·s	28 ± 10 mPa·s	4 ± 2 °C	-116 ± 3 °C	CCCC[N+]1(C)CCCC1.FC(F)(F)C(F)(F)[P-](F)(F)(F)(C(F)(F)C(F)(F)F)C(F)(F)C(F)(F)F
46 ± 10 mPa·s	53 ± 7 mN/m	41 ± 10 mPa·s	32 ± 10 mPa·s	31 ± 10 mPa·s	27 ± 10 mPa·s	24 ± 10 mPa·s	22 ± 10 mPa·s	21 ± 10 mPa·s	19 mPa·s	18 mPa·s	18 mPa·s	16 mPa·s	15 mPa·s	15 mPa·s	15 mPa·s	13 mPa·s	–	–	CCn1cc[n+](C)c1.F[B-](F)(F)F [1-ethyl-3-methylimidazolium tetrafluoroborate]
24 mPa·s	64 ± 9 mN/m	21 mPa·s	19 mPa·s	18 mPa·s	17 mPa·s	16 mPa·s	15 mPa·s	15 mPa·s	14 mPa·s	14 mPa·s	13 mPa·s	13 mPa·s	12 mPa·s	12 mPa·s	12 mPa·s	12 mPa·s	-18 ± 2 °C	-96 ± 3 °C	CCn1cc[n+](C)c1.N#CN=C=[N-] [1-ethyl-3-methylimidazolium dicyanamide]

Structure (SMILES)	viscosity (290 K)	surface tension liquid-gas	viscosity (295 K)	viscosity (300 K)	viscosity (305 K)	viscosity (310 K)	viscosity (315 K)	viscosity (320 K)	viscosity (325 K)	viscosity (330 K)	viscosity (335 K)	viscosity (340 K)	viscosity (345 K)	viscosity (350 K)	viscosity (355 K)	viscosity (360 K)	viscosity (365 K)	Normal melting temperature	Glass transition temperature
CCC[n+]1ccn(C)c1C.O=S(=O)([N-]S(=O)(=O)C(F)(F)F)C(F)(F)F	131 ± 10 mPa·s	41 ± 6 mN/m	106 ± 10 mPa·s	85 ± 10 mPa·s	69 ± 10 mPa·s	58 ± 10 mPa·s	49 ± 10 mPa·s	42 ± 10 mPa·s	37 ± 10 mPa·s	33 ± 10 mPa·s	29 ± 10 mPa·s	27 ± 10 mPa·s	24 ± 10 mPa·s	23 ± 10 mPa·s	21 ± 10 mPa·s	20 mPa·s	19 mPa·s	8 ± 2 °C	-109 ± 20 °C
